Legend:
[1] = Metabolic stability in mouse whole blood; format: in vitro ADME; conditions: for Percentage Remaining: mouse whole blood, replicates 1 and 2, listed as Fosmetpantotenate Total
Experimental: (§1) Metabolic stability in blood and liver microsomes: Fosmetpantotenate or its individual diastereomers (5 μM, n = 2, 37°C) were incubated in mouse, rat, cynomolgus monkey, and human whole blood. Samples (50 μL) were taken at 0, 5, 15, 30, and 60 min. Incubations of fosmetpantotenate or its individual diastereomers (1 μM, n = 2, 37°C) in pooled liver microsomes (0.25 mg protein/mL in 0.1 M phosphate buffer pH 7.4) were initiated with the addition of nicotinamide adenine dinucleotide phosphate (NADPH; 1 mM). Aliquots (100 μL) were obtained at 0, 5, 10, 20, and 40 min and added to 150 μL of 0.1% formic acid in acetonitrile-containing carbamazepine (0.5 μM) as an analytical internal standard, centrifuged, and the supernatants analyzed by LC-MS/MS.
Bioanalysis for determinations of analyte stability: Samples were analyzed using a benchtop tandem quadrupole detector (TQD) mass spectrometer (Waters Ltd, Centennial Park, Hertfordshire). […] Suitable retention and peak shape with separation of the 2 diastereomers were obtained. The chromatography column was a Phenomenex-Kinetex XB C18 (2.10 x 50 mm; 2.6 μm), with a 0.7 mL/min flow rate and a 2 μL injection volume. […] The gradient was initiated with 20% B and increased linearly, reaching 40% B at 0.6 min, followed by 50% B at 0.8 min and by 95% B at 0.9 min. Conditions were kept isocratic through 1.2 min, returned to starting conditions (20% B) at 1.25 min, and maintained at 20% B through 1.5 min before the next injection. Since fosmetpantotenate is a mixture of diastereomers which are resolved chromatographically, the fosmetpantotenate MRM area corresponds to the sum of the MRM areas of the individual diastereomers.
The percent of compound remaining was determined from the MRM area response in each sample relative to that in the T = 0 samples (normalized for internal standard). Natural log plots of the percent compound remaining over time were used to determine the t½ of compound disappearance using the relationship t½ = -0.693/λ, where λ is the slope of the natural logarithm of the percent compound remaining vs time curve.

[2] = Metabolic stability in monkey liver microsomes; format: in vitro ADME; conditions: pooled liver microsomes
Experimental: as §1
Bioanalysis for determinations of analyte stability: Samples were analyzed using a benchtop tandem quadrupole detector (TQD) mass spectrometer (Waters Ltd, Centennial Park, Hertfordshire). […] Suitable retention and peak shape with separation of the 2 diastereomers were obtained. The chromatography column was a Phenomenex-Kinetex XB C18 (2.10 x 50 mm; 2.6 μm), with a 0.7 mL/min flow rate and a 2 μL injection volume. […]
The percent of compound remaining was determined from the MRM area response in each sample relative to that in the T = 0 samples (normalized for internal standard). […]

liver and brain CoA = assay: Labeled experiments: incorporation of isotopically labeled fosmetpantotenate into CoA; format: in vivo, mouse; conditions: 125 μg intrastriatally; 6 h
Text: Fosmetpantotenate was labeled with three ^13C and one ^15N in the PA moiety and with one ^18O in the phosphate moiety, as indicated in Fig 10. The premise of this experiment is the following: if PPA incorporated into CoA originates from fosmetpantotenate metabolism, then all isotope labels (including the ^18O) will be retained in the CoA molecule, resulting in an increase in molecular weight of 6 atomic mass units (AMU) with respect to unlabeled CoA ([M+H]^+ = 774.3 vs 768.3, respectively; Fig 10, Path A). However, if fosmetpantotenate is hydrolyzed to PA, and PA is then re-phosphorylated by WT PanK to yield PPA, or if the ^18O is exchanged with water, then the ^18O would be lost in the process, resulting in a CoA molecule with a 4-AMU increase in molecular weight over unlabeled CoA ([M+H]^+ = 772.3 vs 768.3, respectively, […], Path B). CoA derived from endogenous PA/PPA will have the unchanged molecular weight ([M+H]^+ = 768.3).
Animal phase: C57BL6N mice, 8-week old and 19 to 21 g obtained from Charles River (Como, Italy) were used in these studies. One group of mice (N = 3 per time point) received a single oral dose of 500 mg/kg isotopically labeled fosmetpantotenate dissolved in 20% hydroxypropyl-β-cyclodextrin. Another set of mice (N = 8 per time point) received a direct administration of isotopically labeled fosmetpantotenate at 125 μg (25 mg/mL of aCSF containing 147 mM NaCl, 3.0 mM KCl, 1.2 mM CaCl2, and 1.2 mM MgCl2) via cannula into striatum. Brain, liver, and blood samples were collected at pre-dose, 6 h, 12 h (brain only), and 24 h, and were snap frozen in liquid nitrogen.
Two additional groups of mice (N = 6 per time point for each group) received 3 daily doses (8 am, 2 pm, and 8 pm to mimic an anticipated human dosing schedule) of isotopically labeled fosmetpantotenate at either 1.25 μg (0.625 mg/mL aCSF) or 12.5 μg (6.25 mg/mL aCSF) via ICV infusion cannula (2 μL), for up to 10 consecutive days. Brain (striatum) samples were collected at pre-dose, and at 12 h following the third dose on days 1, 3, 7, and 10, and were snap frozen in liquid nitrogen.
Sample processing: Brain (striatum) and liver tissues were homogenized in a Precellys homogenizer (Bertin technologies, Montigny-le-Bretonneux, France) with 3 volumes of water for each volume of tissue (1:4 dilution). Protein was precipitated by adding 500 μL methanol to 100 μL of homogenate (1:6 dilution), mixed well, and centrifuged. Blood cells (1 volume) were treated with 1:8 v:v water:methanol (1:10 dilution), mixed, and centrifuged. The supernatants (200 μL for brain and blood cells and 100 μL for liver) were dried under nitrogen, reconstituted with 100 μL ammonium acetate 10 mM (pH ~5), and injected (10 μL) into the LC for high resolution mass spectrometry (HRMS) analyses.
CoA determination: An Acquity UPLC (Waters) system was used. Samples were chromatographed on a Luna C18 column (50 x 2.0 mm; 5 μm), with a 0.4 mL/min flow rate and a 10 μL injection volume. The mobile phases were (A), 10 mM ammonium acetate in water, pH 6.8 and (B) acetonitrile:2-propanol (9:1; v:v). The gradient was started with 2% (B) and was increased linearly to reach 20% (B) at 5 min; the gradient was ramped to reach 90% (B) at 5.1 min and kept isocratic at 90% (B) through 7.1 min.
The detector was a Waters QTOF Synapt mass spectrometer, with an electrospray ion source operating in the positive scanning mode acquiring in full scan mode (accuracy <5 ppm). The following exact masses were determined: 768.1230 for CoA, 772.1301 for CoA +4 AMU, and 774.1344 for CoA +6 AMU.
The CoA levels obtained by MS/MS analyses were corrected for ^18O isotopic incorporation. CoA levels were not adjusted for the 1% and 2% of ^12C and ^14N, respectively, in the labeled fosmetpantotenate. […]

COC(=O)CCNC(=O)[C@H](O)C(C)(C)COP(=O)(N[C@@H](C)C(=O)OC)Oc1ccccc1 (mixture of isomers) [Fosmetpantotenate]
half-life at 5 μM ([1]; mouse blood, 5 μM, 37°C, 60 min): < 5 min
Percentage Remaining ([1]; 5 min): 1%
Percentage Remaining ([1]; 15 min): 1%
half-life at 1 μM ([2]; pH 7.4, 1 μM, NADPH): 11 min
microsomal CLint at 1 μM ([2]; pH 7.4, read-out: intrinsic clearance): 263 µL/min/mg
Brain CoA (%) +6 AMU (liver and brain CoA): 36.2%
